The nature of data set [1]: Growth inhibition of human SF539 cells after 48 hrs by SRB assay. The note with it: SF-539, 48 h. It is filed as functional. On the technique in general: In SRB staining, fixed cells bind dye roughly in proportion to their protein.
Data set [2] in a line: Growth inhibition of human SNB19 cells after 48 hrs by SRB assay. In kind it is functional. The note with it: SNB-19, 48 h.
In a further data set the test system is Malme-3M. The data set can be described thus: Growth inhibition of human MALME-3M cells after 48 hrs by SRB assay. In kind it is functional.
The test system of a further data set is SK-MEL-28. The data set can be described thus: Growth inhibition of human SK-MEL-28 cells after 48 hrs by SRB assay. It is filed as functional. The note with it: SK-MEL-28, 48 h, read-out: LC50 (the source's name).
Data set [3] is described as follows: Growth inhibition of human UACC62 cells after 48 hrs by SRB assay. It is filed as functional. Particulars: UACC-62, 48 h.
Data set [4] can be described thus: Growth inhibition of human IGROV1 cells after 48 hrs by SRB assay. It is filed as functional. Particulars: IGROV-1, 48 h.
The subject of a further data set is ACHN. The data set is described as follows: Growth inhibition of human ACHN cells after 48 hrs by SRB assay. It is filed as functional.
Another data set deals with SN12C. The data set is described as follows: Growth inhibition of human SN12C cells after 48 hrs by SRB assay. It is filed as functional.
Data set [5] can be described thus: Growth inhibition of human UO31 cells after 48 hrs by SRB assay. In kind it is functional. Particulars: UO-31, 48 h.
For another data set, the system named is MDA-MB-231. The data set can be described thus: Growth inhibition of human MDA-MB-231 cells after 48 hrs by SRB assay. Particulars: MDA-MB-231, 48 h. In kind it is functional.
A further data set deals with HUVEC. The data set is described as follows: Antiproliferative activity against HUVEC after 72 hrs by AlamarBlue assay. The note with it: Homo sapiens. In general terms: Resazurin is reduced to fluorescent resorufin, in cell work by metabolically active cells.
Data set [6] is described as follows: Cytotoxicity against human PC3 cells after 72 hrs by SRB assay. The note with it: PC-3, 72 h.
Data set [7] in a line: Antiangiogenic activity in human PC3 cells assessed as reduction in VEGF levels at […] +/- […] uM after 72 hrs by ELISA relative to control. In kind it is functional, PC-3. Set-up: scale not given: the % may be the effect or the level left. (In general: An ELISA detects its analyte on a solid surface through an enzyme-linked reagent.)
Data set [8] can be described thus: Antiangiogenic activity in human PC3 cells assessed as reduction in TGF-beta levels at […] +/- […] uM after 72 hrs by ELISA relative to control. It is filed as functional, PC-3. Further details: scale not given: the % may be the effect or the level left.
A short description of data set [9]: Antiangiogenic activity in human PC3 cells assessed as reduction in TNF-alpha levels at […] +/- […] uM after 72 hrs by ELISA relative to control. In kind it is functional, PC-3. Set-up: scale not given: the % may be the effect or the level left.
The nature of data set [10]: Antiangiogenic activity in human PC3 cells assessed as reduction in IGF-1 levels at […] +/- […] uM after 72 hrs by ELISA relative to control. In kind it is functional, PC-3. Further details: scale not given: the % may be the effect or the level left.
Data set [11] can be described thus: Antiangiogenic activity in human PC3 cells assessed as reduction in FGF-beta levels at […] +/- […] uM after 72 hrs by ELISA relative to control. In kind it is functional, PC-3. Set-up: scale not given: the % may be the effect or the level left.
A short description of data set [12]: Antiangiogenic activity in human PC3 cells assessed as reduction in leptin levels at […] +/- […] uM after 72 hrs by ELISA relative to control. It is filed as functional, PC-3. Set-up: scale not given: the % may be the effect or the level left.
A short description of data set [13]: Solubility of the compound. It is filed as physicochemical.
The mark [14] stands for this setting: read-out: LC50 (the source's name).

pIC50: −log10 of the molar value.

Usually GI50 stands for the concentration at which growth is held to half of that of the control. A word on the TGI: it is the concentration giving total growth inhibition. `COc1ccc(Nc2nccc(Nc3ccc4[nH]ncc4c3)n2)cc1`: the GI50 is 4.38 µM in [1]; 4.3 µM in data set [2]; 3.27 µM in the data set on Malme-3M; 1.93 µM in [3]; 3.36 µM in data set [4]; 2.89 µM in the data set with ACHN. The GI50 came out at 3.92 µM in the data set with SN12C, 2.12 µM in [5] and 2.69 µM in the data set on MDA-MB-231. The TGI in data set [1] was 16.8 µM; in [2], 87 µM; in the data set on Malme-3M it was 15.9 µM; in data set [3], 16.9 µM; in data set [4], 25.1 µM; in the data set with ACHN it was 11.7 µM. For the same compound, the results for the TGI (in the data set on SN12C; in [5]; in the data set with MDA-MB-231) were more than 100 µM, 11.4 µM and 5.36 µM, respectively. For the same compound, the CC50 is 51.3 µM in data set [1] (setting [14]); more than 100 µM in data set [2] (setting [14]); more than 100 µM in the data set on Malme-3M (setting [14]); more than 100 µM in the data set with SK-MEL-28; more than 100 µM in [3] (setting [14]); more than 100 µM in [4] (setting [14]). In addition, the CC50 is 45 µM with ACHN (setting [14]), more than 100 µM in the data set on SN12C (setting [14]), 33.8 µM in [5] (setting [14]) and more than 100 µM in the data set with MDA-MB-231 (setting [14]).
One may read the pIC50 as the negative decadic logarithm of the IC50, by convention in mol/L. In the case of `NS(=O)(=O)c1ccc(Nc2nccc(Nc3ccc4[nH]ncc4c3)n2)cc1`, the pIC50 with HUVEC is 5.86; in [6], 4.47. The Activity amounted to 37.6% in data set [7]; 32.2% in data set [8]; 36% in [9]; 39.5% in [10]; 28.4% in [11]; 24.5% in data set [12]. Further, in [13], the solubility entry is “Insoluble”.

Values taken from ChEMBL document CHEMBL3817755, “Design, synthesis and biological evaluation of indazolepyrimidine based derivatives as anticancer agents with anti-angiogenic and antiproliferative activities” (Medchemcomm, 2016).
